Laboratory results reported in patent US10766869B2, “Triazoles for the treatment of demyelinating dieases” (Vertex Pharmaceuticals Incorporated, priority 2015, dated 2020).
Read-outs that look alike come from different tables or passages of the source.

Test system: primary rat mixed cortical cells
Assay: In vitro myelination assay (MBP positive myelin strands, fold myelin pixels above background)
Format: cell-based
Details: for fold induction at 1 µM / fold induction at 10 µM: Rattus norvegicus
In short: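 P1 rat cortical cells (neurons, OPCs, oligodendrocytes, astrocytes, microglia) were cultured 14 days at 37 °C with compound, with half-medium changes containing 1× compound on days 6 and 10. Fixed cells were immunostained for MBP and imaged at 10×. Total MBP myelin pixels per well were expressed as fold above no-compound baseline at 1.0 μM and 10.0 μM.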

[1] = 1.0 μM compound, read-out: Fold myelin pixels above background relative to baseline of no added compound
[2] = 10.0 μM compound, read-out: Fold myelin pixels above background relative to baseline of no added compound
[3] = 1.0 μM compound, relative to baseline of no added compound, read-out: Fold myelin pixels above background, 1.0 μM
[4] = 10.0 μM compound, relative to baseline of no added compound, read-out: Fold myelin pixels above background, 10.0 μM
[5] = 1.0 μM compound, relative to baseline of no added compound, read-out: Fold myelin pixels above background
[6] = 10.0 μM compound, relative to baseline of no added compound, read-out: Fold myelin pixels above background

SMILES: Cc1cc(Nc2ncn(-c3cc(F)cc(F)c3)n2)cc(N2CC(N3CCOCC3)CC2C)c1 (stereo not drawn) [Compound 920, 1-(3,5-difluorophenyl)-N-[3-methyl-5-(2-methyl-4-morpholino-pyrrolidin-1-yl)phenyl]-1,2,4-triazol-3-amine]
- fold induction at 1 µM [1]: 10 to 100
- fold induction at 10 µM [2]: ≤ 1

SMILES: [2H]C1([2H])N(CC(F)F)C([2H])([2H])C([2H])([2H])N(c2cc(C)cc(Nc3ncn(-c4cc(F)cc(F)c4)n3)c2)C1([2H])[2H] [Compound 935, 1-(3,5-difluorophenyl)-N-[3-methyl-5-[2,2,3,3,5,5,6,6-octadeuterio-4-(2,2-difluoroethyl)piperazin-1-yl]phenyl]-1,2,4-triazol-3-amine]
- fold induction at 1 µM [1]: 10 to 100

SMILES: COCCN1CCC(Nc2cc(C)cc(Nc3ncn(-c4cc(F)cc(F)c4)n3)c2)C1 (stereo not drawn) [Compound 894, N3-[1-(3,5-difluorophenyl)-1,2,4-triazol-3-yl]-N1-[1-(2-methoxyethyl)pyrrolidin-3-yl]-5-methyl-benzene-1,3-diamine]
- fold induction at 1 µM [1]: 10 to 100
- fold induction at 10 µM [2]: ≤ 1

SMILES: c1ccc(-n2cnc(Nc3cc(C4CC4)nc(N4CCC5(CC4)OCCO5)c3)n2)cc1 [Compound 9, 2-cyclopropyl-6-(1,4-dioxa-8-azaspiro[4.5]decan-8-yl)-N-(1-phenyl-1,2,4-triazol-3-yl)pyridin-4-amine]
- fold induction at 1 µM [3]: 1000 to 10000
- fold induction at 10 µM [4]: 100 to 1000

SMILES: CCCc1cc(Nc2ncn(-c3cc(F)cc(F)c3)n2)cc(N2CCN(C3COC3)CC2)c1 [Compound 396, 1-(3,5-difluorophenyl)-N-[3-[4-(oxetan-3-yl)piperazin-1-yl]-5-propyl-phenyl]-1,2,4-triazol-3-amine]
- fold induction at 1 µM [5]: 10 to 100
- fold induction at 10 µM [6]: 10 to 100

SMILES: CCc1cc(Nc2ncn(-c3ccc(C#N)cc3)n2)cc(N2CCN(C3COC3)CC2)c1 [Compound 762, 4-[3-[3-ethyl-5-[4-(oxetan-3-yl)piperazin-1-yl]anilino]-1,2,4-triazol-1-yl]benzonitrile]
- fold induction at 1 µM [5]: ≤ 1
- fold induction at 10 µM [6]: ≤ 1

SMILES: Fc1ccc(-n2cnc(Nc3cc(C(F)F)cc(N4CCN(C5COC5)CC4)n3)n2)cc1 [Compound 806, 4-(difluoromethyl)-N-[1-(4-fluorophenyl)-1,2,4-triazol-3-yl]-6-[4-(oxetan-3-yl)piperazin-1-yl]pyridin-2-amine]
- fold induction at 1 µM [1]: 1 to 10
- fold induction at 10 µM [2]: ≤ 1

SMILES: COc1c(C)cc(N2CCN(C3COC3)CC2)cc1Nc1ncn(-c2cnccn2)n1 [Compound 471, N-[2-methoxy-3-methyl-5-[4-(oxetan-3-yl)piperazin-1-yl]phenyl]-1-pyrazin-2-yl-1,2,4-triazol-3-amine]
- fold induction at 1 µM [5]: 1 to 10
- fold induction at 10 µM [6]: ≤ 1

SMILES: Cc1cc(Nc2ncn(-c3ccccc3)n2)cc(N2CC(C)OC(C)C2)c1 (stereo not drawn) [Compound 306, N-[3-(2,6-dimethylmorpholin-4-yl)-5-methyl-phenyl]-1-phenyl-1,2,4-triazol-3-amine]
- fold induction at 1 µM [3]: ≤ 1
- fold induction at 10 µM [4]: ≤ 1

SMILES: Cc1cc(Nc2ncn(-c3cc(F)cc(F)c3)n2)cc(N2CCCC3COCC32)c1 (stereo not drawn) [Compound 981, N-[3-(3,4,4a,5,7,7a-hexahydro-2H-furo[3,4-b]pyridin-1-yl)-5-methyl-phenyl]-1-(3,5-difluorophenyl)-1,2,4-triazol-3-amine]
- fold induction at 1 µM [1]: 1 to 10
- fold induction at 10 µM [2]: 10 to 100

SMILES: Cc1cc(Nc2ncn(-c3ccccc3)n2)cc(C2CCN(CC3(C)COC3)CC2)c1 [Compound 483, N-[3-methyl-5-[1-[(3-methyloxetan-3-yl)methyl]-4-piperidyl]phenyl]-1-phenyl-1,2,4-triazol-3-amine]
- fold induction at 1 µM [5]: ≤ 1
- fold induction at 10 µM [6]: ≤ 1

SMILES: Cc1cc(Nc2ncn(-c3ccccc3)n2)c(F)c(OC2CCOC2)c1 (single isomer, unassigned) [Compound 1052, N-(2-fluoro-5-methyl-3-tetrahydrofuran-3-yloxy-phenyl)-1-phenyl-1,2,4-triazol-3-amine]
- Fold myelin pixels above background relative to baseline of no added compound (1.0 μM compound): ++ (>10 to 100x)
- Fold myelin pixels above background relative to baseline of no added compound (10.0 μM compound): ++ (>10 to 100x)

SMILES: Cc1cc(Nc2ncn(-c3ccnc(F)c3)n2)cc(N2CCCN(C3COC3)CC2)c1 [Compound 776, 1-(2-fluoro-4-pyridyl)-N-[3-methyl-5-[4-(oxetan-3-yl)-1,4-diazepan-1-yl]phenyl]-1,2,4-triazol-3-amine]
- fold induction at 1 µM [5]: 10 to 100
- fold induction at 10 µM [6]: ≤ 1

SMILES: Fc1cc(F)cc(-n2cnc(Nc3cc(N4CCN(C5COC5)CC4)cc(Cl)n3)n2)c1 [Compound 733, 6-chloro-N-[1-(3,5-difluorophenyl)-1,2,4-triazol-3-yl]-4-[4-(oxetan-3-yl)piperazin-1-yl]pyridin-2-amine]
- fold induction at 1 µM [5]: 1 to 10
- fold induction at 10 µM [6]: 1 to 10

SMILES: CCNC(=O)N1CCN(c2cc(C(F)(F)F)cc(Nc3ncn(-c4cc(F)cc(F)c4)n3)n2)CC1 [Compound 554, 4-[6-[[1-(3,5-difluorophenyl)-1,2,4-triazol-3-yl]amino]-4-(trifluoromethyl)-2-pyridyl]-N-ethyl-piperazine-1-carboxamide]
- fold induction at 1 µM [5]: 10 to 100
- fold induction at 10 µM [6]: 10 to 100

SMILES: CC(C)c1cc(Nc2ncn(-c3cc(F)cc(F)c3)n2)cc(N2CCN(C3COC3)CC2)c1 [Compound 359, 1-(3,5-difluorophenyl)-N-[3-isopropyl-5-[4-(oxetan-3-yl)piperazin-1-yl]phenyl]-1,2,4-triazol-3-amine]
- fold induction at 1 µM [3]: 1000 to 10000
- fold induction at 10 µM [4]: ≤ 1

SMILES: Fc1cc(Nc2ncn(-c3ccccn3)n2)cc(N2CCN(C3COC3)CC2)c1 [Compound 642, N-[3-fluoro-5-[4-(oxetan-3-yl)piperazin-1-yl]phenyl]-1-(2-pyridyl)-1,2,4-triazol-3-amine]
- fold induction at 1 µM [5]: 1 to 10
- fold induction at 10 µM [6]: 10 to 100

SMILES: Cc1cc(Nc2ncn(-c3cc(F)cc(F)c3)n2)c(F)c(NC2CCCC2N2CCOCC2)c1 (stereo not drawn) [Compound 1007, N3-[1-(3,5-difluorophenyl)-1,2,4-triazol-3-yl]-2-fluoro-5-methyl-N1-(2-morpholinocyclopentyl)benzene-1,3-diamine]
- fold induction at 1 µM [1]: 1 to 10
- fold induction at 10 µM [2]: 10 to 100

SMILES: Cc1cc(Nc2ncn(-c3cc(F)cc(F)c3)n2)nc(N2CC3(CCO3)C2)c1 [Compound 571, N-[1-(3,5-difluorophenyl)-1,2,4-triazol-3-yl]-4-methyl-6-(3-oxa-6-azaspiro[3.3]heptan-6-yl)pyridin-2-amine]
- fold induction at 1 µM [5]: ≤ 1
- fold induction at 10 µM [6]: 1 to 10

SMILES: Cc1cc(NC[C@@]2(C)CCCO2)cc(Nc2ncn(-c3cc(F)cc(F)c3)n2)c1 (stereo in doubt) [Compound 490, N1-[1-(3,5-difluorophenyl)-1,2,4-triazol-3-yl]-5-methyl-N3-[(2-methyltetrahydrofuran-2-yl)methyl]benzene-1,3-diamine]
- fold induction at 1 µM [5]: 10 to 100
- fold induction at 10 µM [6]: 10 to 100

SMILES: Cc1cc(Nc2ncn(-c3cc(F)cc(F)c3)n2)cc(N2CCOC3(COC3)C2)c1 [Compound 724, 1-(3,5-difluorophenyl)-N-[3-(2,5-dioxa-8-azaspiro[3.5]nonan-8-yl)-5-methyl-phenyl]-1,2,4-triazol-3-amine]
- fold induction at 1 µM [5]: 1 to 10
- fold induction at 10 µM [6]: 1 to 10

SMILES: Cc1cc(Nc2ncn(-c3cccc(C(F)(F)F)c3)n2)cc(OCCN2CCOCC2)c1 [Compound 575, N-[3-methyl-5-(2-morpholinoethoxy)phenyl]-1-[3-(trifluoromethyl)phenyl]-1,2,4-triazol-3-amine]
- fold induction at 1 µM [5]: 10 to 100
- fold induction at 10 µM [6]: ≤ 1

SMILES: Cc1cc(Nc2ncn(-c3cc(F)cc(F)c3)n2)cc(C2(O)CCN(C)C2)c1 (stereo not drawn) [Compound 242, 3-[3-[[1-(3,5-difluorophenyl)-1,2,4-triazol-3-yl]amino]-5-methyl-phenyl]-1-methyl-pyrrolidin-3-ol]
- fold induction at 1 µM [3]: 10 to 100
- fold induction at 10 µM [4]: ≤ 1

SMILES: CCc1cc(Nc2ncn(-c3cccc(OC)c3)n2)cc(N2CCN(C3COC3)CC2)c1 [Compound 432, N-[3-ethyl-5-[4-(oxetan-3-yl)piperazin-1-yl]phenyl]-1-(3-methoxyphenyl)-1,2,4-triazol-3-amine]
- fold induction at 1 µM [5]: 100 to 1000
- fold induction at 10 µM [6]: 1 to 10

SMILES: COCC1CCN(c2cc(C)cc(Nc3ncn(-c4cc(F)cc(F)c4)n3)c2)CC1 [Compound 162, 1-(3,5-difluorophenyl)-N-[3-[4-(methoxymethyl)-1-piperidyl]-5-methyl-phenyl]-1,2,4-triazol-3-amine]
- fold induction at 1 µM [3]: ≤ 1
- fold induction at 10 µM [4]: ≤ 1

SMILES: COCC1CCN(c2cc(C(F)F)cc(Nc3ncn(-c4cccc(C(F)(F)F)c4)n3)n2)CC1 [Compound 795, 4-(difluoromethyl)-6-[4-(methoxymethyl)-1-piperidyl]-N-[1-[3-(trifluoromethyl)phenyl]-1,2,4-triazol-3-yl]pyridin-2-amine]
- fold induction at 1 µM [1]: 1 to 10
- fold induction at 10 µM [2]: 1 to 10

SMILES: CCc1cc(Nc2ncn(-c3cncnc3)n2)cc(N2CCN(C3COC3)CC2)c1 [Compound 549, N-[3-ethyl-5-[4-(oxetan-3-yl)piperazin-1-yl]phenyl]-1-pyrimidin-5-yl-1,2,4-triazol-3-amine]
- fold induction at 1 µM [5]: 1 to 10
- fold induction at 10 µM [6]: 10 to 100

SMILES: Cc1cc(Nc2ncn(-c3cc(F)cc(F)c3)n2)cc(N2CCN(C3CCCOC3)CC2)c1 (stereo not drawn) [Compound 199, 1-(3,5-difluorophenyl)-N-[3-methyl-5-(4-tetrahydropyran-3-ylpiperazin-1-yl)phenyl]-1,2,4-triazol-3-amine]
- fold induction at 1 µM [3]: 100 to 1000
- fold induction at 10 µM [4]: 100 to 1000

SMILES: Cc1cc(Nc2ncn(-c3cc(F)cc(F)c3)n2)cc(N2CCC[C@H]2CN2CCOCC2)c1 (single isomer, unassigned) [Compound 919]
- fold induction at 1 µM [1]: 10 to 100
- fold induction at 10 µM [2]: ≤ 1
